Test results published in PMC10490032, “From Monoamine Oxidase Inhibition to Antiproliferative Activity: New Biological Perspectives for Polyamine Analogs” (Molecules, 2023).

What was measured:
[1] = tested on: MAO activity in LN-229 lysates; test: MAO activity in LN-229 cell lysates, kynuramine assay; details: for Residual MAO activity in lysates: fraction of control
[2] = tested on: LN-229 glioblastoma cell line; test: Inhibition growth assay, Trypan blue exclusion; assay type: cell-based, human; details: LN-229, 48 h of incubation, mean ± SD of five independent experiments in duplicate
Description: On this basis, we investigated the antiproliferative effect of compounds 1–7 on LN-229, a human glioblastoma cell line. Compound 1 and the well-known antitumor drug doxorubicin were taken as references. […] The data in Table 3 support the lack of cytotoxicity of compound 1.
The LN-229 (human glioblastoma) was purchased from the American Type Culture Collection (ATCC) and cultured in DMEM (D2902, Sigma Chemical Co., St. Louis, MO, USA) supplemented with 3.5 g/L of glucose and 5% heat-inactivated fetal calf serum (FCS) (F7524, Sigma Chemical Co.), respectively. A total of 100 U/mL of penicillin, 100 μg/mL of streptomycin, and 0.25 μg/mL of amphotericin B (Sigma Chemical Co.) were added to the medium. Cells were cultured at 37 °C in a humidified atmosphere incubator containing 5% carbon dioxide in air.
Cells (3–6 × 10^4/well) were seeded into a 24-well cell culture plate; after 24 h, different concentrations of the test compounds or reference drug were added. After 48 h of incubation in standard conditions, the cell viability was determined by using a Trypan blue exclusion assay. Briefly, cells were detached by using a […] and 0.3 mM EDTA solution in PBS and stained with 0.1% Trypan blue solution in PBS. Unstained viable cells were immediately counted in a Burker chamber. The percentage of viable cells was calculated with respect to the untreated control culture. […] The goodness of the fit was expressed by the r^2 coefficient, and the best fit report included the analysis of variance corrected for the mean of the observations with the p values (p < 0.005 for all the tested compounds). Data are the means ± SD of at least five independent experiments in duplicate.

human VAP-1 [3] = target: T1, human VAP-1 (Homo sapiens, UniProt Q16853); design: Biothie Therapies Cor; (Turku, Finland), gift; method as in PMID 21858471, PMID 30829081; details: previous studies ref 35, 40; cited from earlier work
T1 sequence (Q16853 1-763): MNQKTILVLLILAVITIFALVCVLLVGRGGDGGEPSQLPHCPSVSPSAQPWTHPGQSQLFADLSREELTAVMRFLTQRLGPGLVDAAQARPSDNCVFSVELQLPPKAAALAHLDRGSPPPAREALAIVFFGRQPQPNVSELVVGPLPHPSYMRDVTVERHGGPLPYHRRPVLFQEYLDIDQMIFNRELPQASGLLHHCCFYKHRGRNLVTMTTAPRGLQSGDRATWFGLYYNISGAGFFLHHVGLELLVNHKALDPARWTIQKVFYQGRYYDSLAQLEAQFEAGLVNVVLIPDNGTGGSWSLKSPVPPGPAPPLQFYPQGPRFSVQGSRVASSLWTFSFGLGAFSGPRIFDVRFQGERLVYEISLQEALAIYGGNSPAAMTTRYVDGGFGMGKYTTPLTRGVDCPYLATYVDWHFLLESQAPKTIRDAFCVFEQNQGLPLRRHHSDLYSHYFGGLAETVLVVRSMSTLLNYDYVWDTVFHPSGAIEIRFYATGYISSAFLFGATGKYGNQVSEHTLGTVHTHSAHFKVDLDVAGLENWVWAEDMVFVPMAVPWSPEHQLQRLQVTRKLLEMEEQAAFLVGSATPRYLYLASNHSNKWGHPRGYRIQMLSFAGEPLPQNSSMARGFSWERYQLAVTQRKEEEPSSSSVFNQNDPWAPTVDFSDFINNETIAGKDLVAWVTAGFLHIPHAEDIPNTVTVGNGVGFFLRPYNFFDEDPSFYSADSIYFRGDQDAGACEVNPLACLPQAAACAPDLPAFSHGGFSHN

murine SMOX = murine SMOX (Mus musculus, UniProt Q99K82); design: made in house; host or cells: E. coli BL21 DE3; details: previous studies ref 35, 40; cited from earlier work
human recombinant MAO A = target: T2, human recombinant MAO A (Homo sapiens, UniProt P21397); test: MAO A inhibition, kynuramine assay (4-hydroxyquinoline fluorescence); details: for Reversibility of MAO A inhibition: 5 μM compound for 25 min, diluted 50 times, 300 μM kynuramine; for Mode of inhibition of MAO A: Lineweaver–Burk plots / global fit; for Time dependence of MAO A inhibition (Vo/VI ratio): pre-incubation 0 to 30 min with 2.5 μM compound
T2 sequence (P21397 1-527): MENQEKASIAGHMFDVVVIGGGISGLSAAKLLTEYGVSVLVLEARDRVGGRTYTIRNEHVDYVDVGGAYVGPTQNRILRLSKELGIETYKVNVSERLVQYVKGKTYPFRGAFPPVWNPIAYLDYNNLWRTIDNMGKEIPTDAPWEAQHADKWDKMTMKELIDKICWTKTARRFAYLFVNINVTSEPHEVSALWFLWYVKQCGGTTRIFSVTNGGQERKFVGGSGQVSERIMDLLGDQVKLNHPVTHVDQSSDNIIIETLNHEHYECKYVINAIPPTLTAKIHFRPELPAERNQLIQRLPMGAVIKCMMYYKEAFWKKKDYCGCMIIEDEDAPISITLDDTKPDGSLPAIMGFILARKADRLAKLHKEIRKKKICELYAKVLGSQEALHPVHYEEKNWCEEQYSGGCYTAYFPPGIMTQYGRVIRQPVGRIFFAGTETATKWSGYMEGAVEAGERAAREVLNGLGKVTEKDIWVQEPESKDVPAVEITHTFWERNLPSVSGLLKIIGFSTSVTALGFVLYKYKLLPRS

human recombinant MAO B = target: T3, human recombinant MAO B (Homo sapiens, UniProt P27338); test: MAO B inhibition, kynuramine assay (4-hydroxyquinoline fluorescence); details: for Reversibility of MAO B inhibition: 5 μM compound for 25 min, diluted 50 times, 300 μM kynuramine; for Mode of inhibition of MAO B: Lineweaver–Burk plots / global fit (compound 7: Figure S1); for Time dependence of MAO B inhibition (Vo/VI ratio): pre-incubation 0 to 30 min with 2.5 μM compound
T3 sequence (P27338 1-520): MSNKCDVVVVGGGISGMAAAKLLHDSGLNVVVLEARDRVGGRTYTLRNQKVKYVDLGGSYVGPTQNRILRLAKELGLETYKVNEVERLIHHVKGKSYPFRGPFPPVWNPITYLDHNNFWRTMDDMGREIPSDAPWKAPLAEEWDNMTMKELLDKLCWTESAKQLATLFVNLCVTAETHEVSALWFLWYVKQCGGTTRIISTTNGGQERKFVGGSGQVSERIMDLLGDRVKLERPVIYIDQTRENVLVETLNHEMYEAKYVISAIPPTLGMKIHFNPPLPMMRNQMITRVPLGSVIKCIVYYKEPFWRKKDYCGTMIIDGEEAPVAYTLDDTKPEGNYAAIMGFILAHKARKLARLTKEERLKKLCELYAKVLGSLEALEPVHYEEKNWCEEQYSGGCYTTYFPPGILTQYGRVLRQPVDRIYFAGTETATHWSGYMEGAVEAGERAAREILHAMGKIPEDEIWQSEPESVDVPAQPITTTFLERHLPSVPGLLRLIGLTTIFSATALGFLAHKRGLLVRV

human VAP-1 [4] = target: T1, human VAP-1; test: VAP-1 amine oxidase activity, Amplex Red/horseradish peroxidase assay, benzylamine as substrate
[5] = inhibitor 5 nM, 15 min pre-incubation, 300 μM kynuramine
[6] = MAO A Ki, human recombinant MAO A, kynuramine 10 μM, from slope of Vo/VI vs compound concentration (1.25–40 μM), mean ± S.D.
[7] = MAO B Ki, human recombinant MAO B, kynuramine 10 μM, from slope of Vo/VI vs compound concentration (1.25–40 μM), mean ± S.D.
[8] = kynuramine 20 μM, compound 0.05–8 μM
[9] = KI (inhibition constant for the free enzyme) vs. MAO A, global fit, mixed model, inhibitor 0.25–2 μM, kynuramine varied
[10] = KIES (dissociation constant for the enzyme–substrate complex) vs. MAO A, global fit, mixed model, inhibitor 0.25–2 μM, kynuramine varied
[11] = KI (inhibition constant for the free enzyme) vs. MAO B, global fit, mixed model, inhibitor 0.25–2 μM, kynuramine varied
[12] = KIES (dissociation constant for the enzyme–substrate complex) vs. MAO B, global fit, mixed model, inhibitor 0.25–2 μM, kynuramine varied
[13] = inhibitor 0.2 μM, 20 μM kynuramine

Chain of murine SMOX (Q99K82 whole entry): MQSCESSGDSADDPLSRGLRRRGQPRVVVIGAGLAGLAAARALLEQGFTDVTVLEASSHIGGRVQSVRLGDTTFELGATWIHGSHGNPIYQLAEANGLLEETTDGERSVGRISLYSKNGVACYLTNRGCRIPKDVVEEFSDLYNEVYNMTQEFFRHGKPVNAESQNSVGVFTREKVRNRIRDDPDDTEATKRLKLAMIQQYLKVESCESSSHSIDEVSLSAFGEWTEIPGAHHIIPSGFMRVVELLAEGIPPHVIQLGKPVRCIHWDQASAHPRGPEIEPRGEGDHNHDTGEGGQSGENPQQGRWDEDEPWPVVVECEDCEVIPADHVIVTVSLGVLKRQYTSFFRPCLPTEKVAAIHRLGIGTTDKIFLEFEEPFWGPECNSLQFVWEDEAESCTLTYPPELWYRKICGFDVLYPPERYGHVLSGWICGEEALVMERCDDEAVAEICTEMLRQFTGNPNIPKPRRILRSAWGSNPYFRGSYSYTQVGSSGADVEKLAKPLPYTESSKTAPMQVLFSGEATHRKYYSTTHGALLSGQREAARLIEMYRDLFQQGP

C#CCN(C)CCCOc1ccc(Cl)cc1Cl [Clorgyline, clorgyline]
Residual MAO activity in lysates [1, 5]: 0.34 ± 0.10

COc1ccccc1CNCCCCCCNCCCCCCCCNCCCCCCNCc1ccccc1OC [Compound 1, methoctramine, reference compound]
GI50 ([2]; Homo sapiens): > 20000 nM | Inhibition of VAP-1 (human VAP-1 [3]): very poorly active | Inhibition of SMOX (murine SMOX): more effective than 2 | Ki (human recombinant MAO A; [6]): 290000 ± 60000 nM | Ki (human recombinant MAO B; [7]): 470000 ± 50000 nM

COc1ccccc1CNCCCCCCNc1ccc(CCc2ccc(NCCCCCCNCc3ccccc3OC)cc2)cc1 [Compound 4]
GI50 ([2]; Homo sapiens, LN-229, 48 h): < 1000 nM | GI50 [2]: 900 ± 200 nM | Effect on MAO activity in LN-229 lysates [1, 8]: not affected | Reversibility of MAO A inhibition (human recombinant MAO A): full reversibility | Ki (human recombinant MAO A; [9]): 620 ± 110 nM | Ki (human recombinant MAO A; [10]): 11000 ± 2000 nM | Mode of inhibition of MAO A (human recombinant MAO A): mainly competitive/mixed | Ki (human recombinant MAO A; [6]): 900 ± 200 nM | Time dependence of MAO A inhibition (Vo/VI ratio) (human recombinant MAO A; kynuramine 10 μM): no time dependence of the inhibition was observed | Reversibility of MAO B inhibition (human recombinant MAO B): full reversibility | Ki (human recombinant MAO B; [11]): 310 ± 50 nM | Ki (human recombinant MAO B; [12]): 15000 ± 2000 nM | Mode of inhibition of MAO B (human recombinant MAO B): mainly competitive/mixed | Ki (human recombinant MAO B; [7]): 300 ± 100 nM | Time dependence of MAO B inhibition (Vo/VI ratio) (human recombinant MAO B; kynuramine 10 μM): no time dependence of the inhibition was observed

COc1ccccc1CNCCCCCC(=O)Nc1ccc(CCc2ccc(NC(=O)CCCCCNCc3ccccc3OC)cc2)cc1 [Compound 5]
GI50 ([2]; Homo sapiens, LN-229, 48 h): < 1000 nM | GI50 [2]: 800 ± 100 nM | Effect on MAO activity in LN-229 lysates [1, 8]: concentration-dependent inhibition | Ki ([1]; read-out: Ki for MAO activity in LN-229 lysates, kynuramine 20 μM, compound 0.05–8 μM): 2000 nM | Reversibility of MAO A inhibition (human recombinant MAO A): full reversibility | Ki (human recombinant MAO A; [9]): 620 ± 90 nM | Ki (human recombinant MAO A; [10]): 14000 ± 2000 nM | Mode of inhibition of MAO A (human recombinant MAO A): mainly competitive/mixed | Ki (human recombinant MAO A; [6]): 600 ± 100 nM | Time dependence of MAO A inhibition (Vo/VI ratio) (human recombinant MAO A; kynuramine 10 μM): no time dependence of the inhibition was observed | Reversibility of MAO B inhibition (human recombinant MAO B): full reversibility | Ki (human recombinant MAO B; [11]): 160 ± 40 nM | Ki (human recombinant MAO B; [12]): 6000 ± 1000 nM | Mode of inhibition of MAO B (human recombinant MAO B): mainly competitive/mixed | Ki (human recombinant MAO B; [7]): 200 ± 100 nM | Time dependence of MAO B inhibition (Vo/VI ratio) (human recombinant MAO B; kynuramine 10 μM): no time dependence of the inhibition was observed | Ki (human VAP-1 [4]): ~50000 nM

COc1ccccc1CNCCCCCCN1Cc2ccc3c4c(ccc(c24)C1)CN(CCCCCCNCc1ccccc1OC)C3 [Compound 6]
GI50 ([2]; Homo sapiens, LN-229, 48 h): 2000 ± 900 nM | Ki (human recombinant MAO A; [6]): 37000 ± 4000 nM | Ki (human recombinant MAO B; [7]): 27000 ± 4000 nM

COc1ccccc1CNCCCCCCN1C(=O)c2ccc3c4c(ccc(c24)C1=O)C(=O)N(CCCCCCNCc1ccccc1OC)C3=O [Compound 7]
GI50 ([2]; Homo sapiens, LN-229, 48 h): 400 ± 100 nM | Ki (human recombinant MAO A; [6]): 3200 ± 200 nM | Mode of inhibition of MAO B (human recombinant MAO B): mainly competitive/mixed | Ki (human recombinant MAO B; [7]): 4200 ± 300 nM

COc1cccc2c1C(=O)c1c(O)c3c(c(O)c1C2=O)C[C@@](O)(C(=O)CO)C[C@@H]3O[C@H]1C[C@H](N)[C@H](O)[C@H](C)O1 [DOXO, doxorubicin, reference compound]
GI50 ([2]; Homo sapiens, LN-229, 48 h): 12 ± 4 nM

C#CCN(C)[C@H](C)Cc1ccccc1 [Deprenyl, deprenyl]
Residual MAO activity in lysates [1, 5]: 0.74 ± 0.04

COc1ccc2c(c1)[nH]c1c(C)nccc12 [Harmine, reference compound]
Residual MAO activity in lysates [1, 13]: 0.37 ± 0.08 | Ki (human recombinant MAO B; MAO B Ki, human recombinant MAO B, kynuramine 10 μM, […], mean ± S.D.): > 10000 nM

C#CCN(C)Cc1ccccc1 [Pargyline, pargyline]
Residual MAO activity in lysates ([1]; inhibitor 0.5 mM, 15 min pre-incubation, 300 μM kynuramine): 0.03 ± 0.02 | Residual activity in lysates after pre-incubation ([1]; pargyline pre-incubation 15 min, kynuramine 300 μM): about 3%

C[C@H](NCc1ccc(OCc2cccc(F)c2)cc1)C(N)=O [Safinamide]
Residual MAO activity in lysates [1, 13]: 0.66 ± 0.04

NCCC(=O)c1ccccc1N [kynuramine, reference compound]
Km ([1]; read-out: apparent KM in LN-229 lysates, substrate, Michaelis–Menten fit): 25 ± 3 µM | Km (human recombinant MAO B; read-out: KM for MAO B, substrate, human recombinant MAO B): 27 ± 4 µM
